“And” between values parts separate entries of the source, which are not always exact repeats. Equal values may be shown once. Read-outs that look alike come from different tables or passages of the source.
Assays:
recombinant human HDAC1 = biological target: T1, recombinant human HDAC1 (Homo sapiens, UniProt Q13547); assay: Recombinant human HDAC1 enzymatic assay (Ac-peptide-AMC, fluorescence); format: biochemical
T1 construct: purchased BPS Biosciences
Description: (§1) The assays were carried out by Shanghai ChemPartner Co., Ltd. (Shanghai, China). Briefly, different concentrations of compounds were incubated with recombinant human HDAC1, HDAC2, HDAC3, HDAC6, and HDAC8 (BPS Biosciences, San Diego, CA, USA) at room temperature for 15 min, which was followed by adding Ac-peptide-AMC substrates to initiate the reaction in Tris-based assay buffer. Reaction mixtures were incubated at room temperature for 60 min in the HDAC1, HDAC2, HDAC3, and HDAC6 assays, and were incubated for 240 min in the HDAC8 assay. Then a stop solution containing trypsin was added. The coupled reaction was incubated for another 90 min at 37 °C. […] IC50 values were calculated by GraphPad Prism version 4.00 Windows (GraphPad Software, San Diego, CA, USA).

recombinant human HDAC2 = biological target: T2, recombinant human HDAC2 (Homo sapiens, UniProt Q92769); assay: Recombinant human HDAC2 enzymatic assay (Ac-peptide-AMC, fluorescence); format: biochemical
T2 construct: purchased BPS Biosciences
Description: as §1

recombinant human HDAC3 = biological target: T3, recombinant human HDAC3 (Homo sapiens, UniProt O15379); assay: Recombinant human HDAC3 enzymatic assay (Ac-peptide-AMC, fluorescence); format: biochemical; conditions: 10-dose IC50 mode in duplicate, threefold serial dilution; 60 min reaction; read-out: IC50 ± SD HDAC3
T3 construct: purchased BPS Biosciences
Description: as §1

recombinant human HDAC8 = biological target: T4, recombinant human HDAC8 (Homo sapiens, UniProt Q9BY41); assay: Recombinant human HDAC8 enzymatic assay (Ac-peptide-AMC, fluorescence); format: biochemical
T4 construct: purchased BPS Biosciences
T4 sequence (Q9BY41 1-377): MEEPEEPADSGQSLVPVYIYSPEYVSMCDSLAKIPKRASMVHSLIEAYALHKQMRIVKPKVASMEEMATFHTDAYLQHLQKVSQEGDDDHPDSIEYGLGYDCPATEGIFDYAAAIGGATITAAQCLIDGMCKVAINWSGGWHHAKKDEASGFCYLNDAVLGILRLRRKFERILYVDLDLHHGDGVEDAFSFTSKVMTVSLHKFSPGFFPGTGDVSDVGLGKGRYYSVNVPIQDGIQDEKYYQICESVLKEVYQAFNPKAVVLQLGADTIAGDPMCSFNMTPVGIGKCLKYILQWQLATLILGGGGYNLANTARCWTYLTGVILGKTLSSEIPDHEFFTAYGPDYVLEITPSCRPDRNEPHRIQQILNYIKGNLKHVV
Description: as §1

recombinant human HDAC6 = biological target: T5, recombinant human HDAC6 (Homo sapiens, UniProt Q9UBN7); assay: Recombinant human HDAC6 enzymatic assay (Ac-peptide-AMC, fluorescence); format: biochemical; conditions: read-out: IC50 ± SD HDAC6
T5 construct: purchased BPS Biosciences
T5 sequence (Q9UBN7 1-1215): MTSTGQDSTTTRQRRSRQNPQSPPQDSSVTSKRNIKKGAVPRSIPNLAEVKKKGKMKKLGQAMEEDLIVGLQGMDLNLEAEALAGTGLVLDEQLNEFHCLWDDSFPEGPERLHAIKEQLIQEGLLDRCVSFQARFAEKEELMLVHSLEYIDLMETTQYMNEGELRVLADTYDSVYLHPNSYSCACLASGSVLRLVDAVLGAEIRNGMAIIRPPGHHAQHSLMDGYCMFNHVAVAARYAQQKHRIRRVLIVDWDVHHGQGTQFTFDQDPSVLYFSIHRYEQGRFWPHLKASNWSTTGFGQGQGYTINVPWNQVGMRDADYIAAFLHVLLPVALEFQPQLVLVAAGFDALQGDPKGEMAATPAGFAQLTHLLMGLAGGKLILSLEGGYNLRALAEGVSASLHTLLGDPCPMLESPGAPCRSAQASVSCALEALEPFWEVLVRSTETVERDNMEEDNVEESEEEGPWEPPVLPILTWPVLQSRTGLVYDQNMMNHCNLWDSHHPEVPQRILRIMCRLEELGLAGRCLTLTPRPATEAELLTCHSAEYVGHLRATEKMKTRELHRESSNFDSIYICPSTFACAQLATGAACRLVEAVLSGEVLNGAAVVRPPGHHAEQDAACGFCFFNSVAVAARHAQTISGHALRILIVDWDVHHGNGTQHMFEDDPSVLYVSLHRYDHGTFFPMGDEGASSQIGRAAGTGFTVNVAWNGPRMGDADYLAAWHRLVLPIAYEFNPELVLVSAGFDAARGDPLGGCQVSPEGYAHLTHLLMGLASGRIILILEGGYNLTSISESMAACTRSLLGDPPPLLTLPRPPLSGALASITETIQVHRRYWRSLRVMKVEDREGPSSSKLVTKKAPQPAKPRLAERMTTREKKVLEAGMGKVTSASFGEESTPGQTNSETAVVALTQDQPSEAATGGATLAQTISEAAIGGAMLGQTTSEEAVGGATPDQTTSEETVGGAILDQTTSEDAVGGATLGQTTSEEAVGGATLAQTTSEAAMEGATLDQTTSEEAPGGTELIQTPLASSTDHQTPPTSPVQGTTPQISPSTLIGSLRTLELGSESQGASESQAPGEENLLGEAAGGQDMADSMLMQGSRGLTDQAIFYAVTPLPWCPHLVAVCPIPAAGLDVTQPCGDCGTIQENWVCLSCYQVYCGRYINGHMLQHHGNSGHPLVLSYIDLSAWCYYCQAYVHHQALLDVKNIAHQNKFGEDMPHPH
Description: as §1

A549 tumor cells = assay: MTT assay, growth inhibition of A549 cells; format: cell-based; conditions: Homo sapiens, read-out: IC50 ± SD A549 growth inhibition
Description: (§2) Cells (600,000 cells/well) were seeded in 96-well plates and incubated for 24 h before being treated with various concentrations of compounds or solvent control. Cells were further incubated for 72 h and then treated with MTT and incubated for another 3 h. The media were then removed and 100 µL DMSO was added to each well. The absorbance at 550 nm was measured by a SpectraMAX340 microplate reader (Molecular Devices, Sunnyvale, CA, USA) with a reference wavelength at 690 nm.

HCT116 tumor cells [1] = assay: MTT assay, growth inhibition of HCT116 cells; format: cell-based; conditions: seven-dose IC50 mode in duplicate, four-fold serial dilution
Description: as §2

MDA-MB-231 tumor cells = assay: MTT assay, growth inhibition of MDA-MB-231 cells; format: cell-based; conditions: Homo sapiens, read-out: IC50 ± SD MDA-MB-231 growth inhibition
Description: as §2

SK-OV-3 tumor cells = assay: MTT assay, growth inhibition of SK-OV-3 cells; format: cell-based; conditions: seven-dose IC50 mode in duplicate, four-fold serial dilution
Description: as §2

HCT116 tumor cells [2] = conditions: reported by Leusch; read-out: IC50 HCT116 growth inhibition (data in parentheses) (converted); cited from earlier work
[3] = IC50 value ratio of HDAC 1 versus HDAC 6
[4] = 10-dose IC50 mode in duplicate, threefold serial dilution, 240 min reaction, read-out: IC50 ± SD HDAC8

T1 sequence (Q13547 whole entry): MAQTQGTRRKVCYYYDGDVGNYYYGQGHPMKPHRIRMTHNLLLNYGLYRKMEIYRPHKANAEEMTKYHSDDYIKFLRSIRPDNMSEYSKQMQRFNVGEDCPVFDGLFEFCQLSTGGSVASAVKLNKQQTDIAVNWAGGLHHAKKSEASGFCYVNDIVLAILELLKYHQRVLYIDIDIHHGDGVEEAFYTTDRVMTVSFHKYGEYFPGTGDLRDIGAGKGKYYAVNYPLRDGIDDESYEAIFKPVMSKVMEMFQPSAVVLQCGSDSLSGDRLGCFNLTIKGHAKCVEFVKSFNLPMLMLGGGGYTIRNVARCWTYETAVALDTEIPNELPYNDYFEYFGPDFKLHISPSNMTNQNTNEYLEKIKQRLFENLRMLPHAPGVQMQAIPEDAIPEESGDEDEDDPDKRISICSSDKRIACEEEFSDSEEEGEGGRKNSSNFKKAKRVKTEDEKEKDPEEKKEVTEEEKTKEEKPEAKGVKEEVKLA
T3 sequence (O15379 whole entry): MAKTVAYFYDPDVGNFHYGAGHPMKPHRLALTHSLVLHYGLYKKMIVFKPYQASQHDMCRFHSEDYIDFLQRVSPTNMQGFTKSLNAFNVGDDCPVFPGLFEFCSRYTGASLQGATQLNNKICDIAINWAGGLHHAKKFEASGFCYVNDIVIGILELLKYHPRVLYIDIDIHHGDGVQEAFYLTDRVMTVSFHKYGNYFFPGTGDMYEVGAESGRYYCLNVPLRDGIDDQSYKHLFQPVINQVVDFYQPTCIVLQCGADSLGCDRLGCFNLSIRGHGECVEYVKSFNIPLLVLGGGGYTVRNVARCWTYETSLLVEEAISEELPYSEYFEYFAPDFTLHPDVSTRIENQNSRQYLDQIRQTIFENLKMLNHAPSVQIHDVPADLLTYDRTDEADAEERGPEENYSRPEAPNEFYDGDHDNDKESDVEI
T3 sequence (Q9Y618 395-489 partner limits assumed): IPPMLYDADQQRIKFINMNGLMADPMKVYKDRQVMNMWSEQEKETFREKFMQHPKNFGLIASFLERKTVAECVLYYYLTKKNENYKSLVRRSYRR
T2 sequence (Q92769 whole entry): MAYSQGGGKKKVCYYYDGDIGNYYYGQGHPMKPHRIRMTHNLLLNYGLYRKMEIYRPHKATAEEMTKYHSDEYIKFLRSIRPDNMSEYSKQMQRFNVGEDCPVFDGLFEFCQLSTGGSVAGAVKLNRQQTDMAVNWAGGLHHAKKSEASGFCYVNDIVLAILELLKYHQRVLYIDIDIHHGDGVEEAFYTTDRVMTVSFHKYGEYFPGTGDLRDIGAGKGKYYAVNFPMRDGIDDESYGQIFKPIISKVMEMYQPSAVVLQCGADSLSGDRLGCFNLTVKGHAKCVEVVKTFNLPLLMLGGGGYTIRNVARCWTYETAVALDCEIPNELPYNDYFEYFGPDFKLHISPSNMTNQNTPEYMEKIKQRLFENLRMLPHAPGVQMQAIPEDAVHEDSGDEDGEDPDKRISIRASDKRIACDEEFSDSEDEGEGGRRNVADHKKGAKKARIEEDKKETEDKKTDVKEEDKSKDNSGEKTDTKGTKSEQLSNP

| Selectivity (HDAC1/6) (recombinant human HDAC1; [3]) | IC50 (recombinant human HDAC1; read-out: IC50 ± SD HDAC1) | IC50 (recombinant human HDAC2; read-out: IC50 ± SD HDAC2) | IC50 (recombinant human HDAC3) | IC50 (recombinant human HDAC8; [4]) | IC50 (recombinant human HDAC6) | Compound | IC50 (recombinant human HDAC8) | other results |
| --- | --- | --- | --- | --- | --- | --- | --- | --- |
| 68 | 0.0044 ± 0.0002 µM | 0.021 ± 0.0003 µM | 0.0392 µM and 0.039 µM | 0.0085 ± 0.0025 µM | 0.3 ± 0.005 µM | CC(C)[C@@H]1NC(=O)[C@]2(C)CSC(=N2)c2csc(n2)CNC(=O)C[C@@H](/C(F)=C/CCS)OC1=O [Compound 15a, (5R,8S,11S/R)-11-((Z)-1-Fluoro-4-mercaptobut-1-en-1-yl)-8-isopropyl-5-methyl-10-oxa-3,17-dithia-7,14,19,20-tetraazatricyclo[14.2.1.12,5]icosa-1(18),2(20),16(19)-triene-6,9,13-trione] | – | selectivity towards HDAC 1 over HDAC 6 (recombinant human HDAC1; [3]): about 68 fold |
| 80 | 0.0042 ± 0.0003 µM | 0.0162 ± 0.0004 µM | 0.0371 ± 0.0007 µM | 0.0176 ± 0.0041 µM | 0.338 ± 0.017 µM | C[C@@]12CSC(=N1)c1csc(n1)CNC(=O)C[C@@H](/C(F)=C/CCS)OC(=O)[C@H](Cc1ccccc1)NC2=O [Compound 15b] | – | – |
| – | – | – | – | – | – | CCCCCCCC(=O)SCC/C=C/[C@@H]1CC(=O)NCc2nc(cs2)C2=N[C@@](C)(CS2)C(=O)N[C@@H](C(C)C)C(=O)O1 [Largazole, reference compound] | 0.12 ± 0.058 µM | IC50 (recombinant human HDAC1; 10-dose IC50 mode in duplicate, threefold serial dilution, 60 min reaction, read-out: IC50 ± SD HDAC1): 0.228 ± 0.034 µM; IC50 (recombinant human HDAC2): 1.52 ± 0.015 µM; IC50 (A549 tumor cells; A549, 72 h): 0.46 ± 0.1 µM; IC50 (HCT116 tumor cells [1]; Homo sapiens, HCT-116, 72 h, read-out: IC50 ± SD HCT116 growth inhibition, MTT, 72 h): 0.184 µM; IC50 (HCT116 tumor cells [1]; read-out: IC50 ± SD HCT116 growth inhibition, MTT, 72 h): 0.18 ± 0.01 µM; IC50 (MDA-MB-231 tumor cells; MDA-MB-231, 72 h): 1.37 ± 0.41 µM; IC50 (SK-OV-3 tumor cells; Homo sapiens, SK-OV-3, 72 h, read-out: IC50 ± SD SK-OV-3 growth inhibition, MTT, 72 h): 0.034 µM; IC50 (SK-OV-3 tumor cells; read-out: IC50 ± SD SK-OV-3 growth inhibition, MTT, 72 h): 0.03 ± 0.01 µM; IC50 (HCT116 tumor cells [2]): 0.044 µM |

| Compound | Selectivity (HDAC1/6) (recombinant human HDAC1; [3]) | IC50 (recombinant human HDAC1; read-out: IC50 ± SD HDAC1) | IC50 (recombinant human HDAC2; read-out: IC50 ± SD HDAC2) | IC50 (recombinant human HDAC3) | IC50 (recombinant human HDAC8; [4]) | IC50 (recombinant human HDAC6) | IC50 (recombinant human HDAC8) | other results |
| --- | --- | --- | --- | --- | --- | --- | --- | --- |
| CCCCCCCC(=O)SCC/C=C(\F)[C@@H]1CC(=O)NCc2nc(cs2)C2=N[C@@](C)(CS2)C(=O)N[C@@H](C(C)C)C(=O)O1 [Compound 16a, S-((Z)-4-Fluoro-4-((5R,8S,11S/R)-8-isopropyl-5-methyl-6,9,13-trioxo-10-oxa-3,17-dithia-7,14,19,20-tetraazatricyclo[14.2.1.12,5]icosa-1(18),2(20),16(19)-trien-11-yl)but-3-en-1-yl) octanethioate] | – | – | 1.817 ± 0.017 µM | – | – | – | 0.255 ± 0.092 µM | IC50 (recombinant human HDAC1): 0.385 ± 0.045 µM; IC50 (A549 tumor cells; A549, MTT, 72 h, seven-dose IC50 mode in duplicate, four-fold serial dilution): 0.52 ± 0.12 µM; IC50 (HCT116 tumor cells [1]; Homo sapiens, HCT-116, MTT, 72 h, read-out: IC50 ± SD HCT116 growth inhibition): 0.81 ± 0.13 µM; IC50 (MDA-MB-231 tumor cells; MDA-MB-231, MTT, 72 h, seven-dose IC50 mode in duplicate, four-fold serial dilution): 3.85 ± 0.44 µM; IC50 (SK-OV-3 tumor cells; Homo sapiens, SK-OV-3, MTT, 72 h, read-out: IC50 ± SD SK-OV-3 growth inhibition): 0.25 ± 0.13 µM |

— PMC6628159 (Marine Drugs, 2019)
